The results in this text go back to patent US6344342B1, “Human G protein coupled lysophosphatidic acid receptor” (SmithKline Beecham Corporation, priority 1997, dated 2002).

The assay concerns HOFNH30. Nature of the assay: Ca2+-mobilization FLIPR assay in RBL-2H3 cells stably expressing HOFNH30. It is filed as cell-based, human. Conditions: several clones of RBL-2H3 cells stably expressing HOFNH30, Fluo 3AM-loaded cells. The text has this:
One preferred screening method involves co-transfecting HEK-293 cells with a mammalian expression plasmid encoding a G-protein coupled receptor (GPCR), such as HOFNH30, along with a mixture comprised of mammalian expression plasmids cDNAs encoding Gα15 (Wilkie T. M. et al Proc Natl Acad Sci USA 1991 88:10049-10053), Gα16 (Amatruda T. T. et al Proc Natl Acad Sci USA 1991 8:5587-5591, and three chimeric G-proteins refered to as Gqi5, Gqs5, and Gqo5 (Conklin B R et al Nature 1993 363:274-276, Conklin B. R. et al Mol Pharmacol 1996 50:885-890). Following a 24 h incubation the transfected HEK-293 cells are plated into poly-D-lysine coated 96 well black/clear plates (Becton Dickinson, Bedford, Mass.). The cells are assayed on FLIPR (Fluorescent Imaging Plate Reader, Molecular Devices, Sunnyvale, Calif.) for a calcium mobilization response following addition of test ligands. […]
A microtitre plate based Ca2^+-miobilization FLIPR assay (Fluorescent Imaging Plate Reader, Molecular Devices, Sunnyvale, Calif.) was used for the functional identification of the ligand activating RBL-2H3 cells stably expressing HOFNH30. […] After initiation of the assay, fluorescence was read every 1s for 1 min and then every 3 s for the following 1 min.

Take `CCCCCCCC/C=C\CCCCCCCC(=O)OC[C@@H](O)COP(=O)(O)O` [LPA, 1-Oleoyl-sn-glycero-3-phosphate]: the calcium mobilization response entry is “dose dependent calcium mobilization response”.
